Laboratory results published in US10307437B2, “Methods for treatment of vascular endothelial dysfunction using nicotinamide mononucleotide” (The Regents of the University of Colorado, a Body Corporate, priority 2014, dated 2019).
“Also recorded” adds a separate entry of the source.

How the values were obtained:
elastin = assay: Immunohistochemistry of aortic elastin; format: in vivo; details: old mice, NMN 8 weeks
Excerpt: (§1) Young (4-8 months) C57Bl/6 male mice were purchased from Charles River and old (26-28 months) C57Bl/6 male mice were obtained from the National Institute on Aging rodent colony. Mice were fed normal rodent chow ad libitum for the duration of the study. After an acclimation period of 2 weeks, the young and old mice were divided into two subgroups: control animals (YC, OC) continued on normal drinking water and the other animals (YNMN, ONMN) received nicotinamide mononucleotide (NMN; Sigma-Aldrich Corp., St. Louis, Mo., USA) supplementation in the drinking water (240 mg/kg/day) for 8 weeks. All mice were housed in an animal care facility at the University of Colorado Boulder on a 12:12 hour light-dark cycle. All animal procedures conformed to the Guide to the Care and Use of Laboratory Animals (NIH publication No. 85-23, revised 1996) and were approved by the UCB Animal Care and Use Committee.
(§2) Immunohistochemistry was used to determine aortic expression of collagen type I and elastin as previously described (Fleenor B. S. et al. 2010 J Physiol. 588, 3971-3982). […] Digital photomicrographs were obtained using a Nikon Eclipse TS100 photomicroscope, and quantification was performed with Image-J Software Version 1.0. The adventitial and medial layers for each sample were quantified together for whole vessel expression. […]

SIRT1 [1] = biological target: T1, SIRT1 (Mus musculus, UniProt Q923E4); assay: SIRT1 activation by ratio of acetylated to total NFκB (p65 subunit) in aorta; format: in vivo; set-up: Aortas were used as a surrogate large elastic artery to provide sufficient tissue for analysis of protein expression by Western blot; from tissue; host or cells: mouse aorta (C57Bl/6); details: old mice, NMN 8 weeks
T1 sequence (Q923E4 1-737): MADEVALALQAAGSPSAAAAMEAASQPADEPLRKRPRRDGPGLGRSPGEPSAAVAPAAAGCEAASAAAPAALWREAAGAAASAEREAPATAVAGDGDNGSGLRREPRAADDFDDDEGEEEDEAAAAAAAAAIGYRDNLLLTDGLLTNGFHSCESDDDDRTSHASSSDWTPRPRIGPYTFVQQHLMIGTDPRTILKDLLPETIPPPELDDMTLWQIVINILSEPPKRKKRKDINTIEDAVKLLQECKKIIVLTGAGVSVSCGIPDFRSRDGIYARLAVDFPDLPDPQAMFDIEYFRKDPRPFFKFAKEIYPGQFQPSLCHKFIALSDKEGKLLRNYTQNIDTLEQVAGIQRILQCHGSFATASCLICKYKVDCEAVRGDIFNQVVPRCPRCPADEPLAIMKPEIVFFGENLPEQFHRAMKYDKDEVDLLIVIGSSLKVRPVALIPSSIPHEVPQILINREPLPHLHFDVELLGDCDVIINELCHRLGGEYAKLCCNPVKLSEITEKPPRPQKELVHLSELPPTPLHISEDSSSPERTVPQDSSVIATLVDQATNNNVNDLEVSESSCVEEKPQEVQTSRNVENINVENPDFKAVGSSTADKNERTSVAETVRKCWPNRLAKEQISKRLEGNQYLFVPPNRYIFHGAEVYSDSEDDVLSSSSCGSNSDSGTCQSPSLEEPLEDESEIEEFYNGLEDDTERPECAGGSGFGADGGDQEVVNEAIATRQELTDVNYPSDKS
Excerpt: as §1, with “All animal procedures conformed to the Guide to the Care and Use of Laboratory Animals (NIH publication No. 85-23, revised 1996) and were approved by the UCB Animal Care and Use Committee.” left out
(§3) Aortas were used as a surrogate large elastic artery to provide sufficient tissue for analysis of protein expression by Western blot as described previously (Donato A. J. et al. 2013, J Physiol. 589, 4545-4554; Gano L. B. et al. 2014, Am J Physiol Heart Circ Physiol. 307, H1754-1763). […] Relative intensity was quantified using Image-J Software Version 1.0. […] The ratio of acetylated to total p65 was determined by running two identical Western blots. […] The ratio of acetylated to total p65 was determined for each animal and then normalized to the YC group mean.

C57Bl/6 male mice [2] = assay: In vivo aortic pulse wave velocity; details: young mice, NMN 240 mg/kg/day, 8 weeks
Excerpt: as §1, with “All animal procedures conformed to the Guide to the Care and Use of Laboratory Animals (NIH publication No. 85-23, revised 1996) and were approved by the UCB Animal Care and Use Committee.” left out
Aortic pulse wave velocity (aPWV) was measured as described previously (Sindler A. L. et al. 2011, Aging Cell. 10, 429-437; Fleenor B. S. et al. 2012b, Exp Gerontol. 47, 588-594). […] Aortic blood flow velocity was measured with two Doppler probes placed at the transverse aortic arch and abdominal aorta, respectively. Pre-ejection time, the time between the R-wave of the ECG to foot of the Doppler signal, was determined for each site. aPWV was calculated by dividing the distance between the transverse and abdominal probes by the difference in the thoracic and abdominal pre-ejection times.

SIRT1 [3] = assay: Western blot of aortic SIRT1 expression; format: in vivo, mice; details: NMN 8 weeks
Excerpt: as §1, with “All animal procedures conformed to the Guide to the Care and Use of Laboratory Animals (NIH publication No. 85-23, revised 1996) and were approved by the UCB Animal Care and Use Committee.” left out
as §3

nitrotyrosine = assay: Western blot of aortic nitrotyrosine abundance; format: in vivo, mice; details: NMN 8 weeks
Excerpt: as §1, with “All animal procedures conformed to the Guide to the Care and Use of Laboratory Animals (NIH publication No. 85-23, revised 1996) and were approved by the UCB Animal Care and Use Committee.” left out
as §3

superoxide = assay: Aortic superoxide production by EPR spectroscopy; format: in vivo; details: young mice, NMN 8 weeks
Excerpt: as §1
Measurement of superoxide production in the thoracic aorta was performed using electron paramagnetic resonance (EPR) spectroscopy, as previously described (LaRocca T. J. et al. 2013, Mech Ageing Dev. 134, 314-320). […] The signal amplitude was analyzed using an MS300 X-band EPR spectrometer (Magnettech GmbH, Berlin, Germany) with the following settings: centrefield, 3350 G; sweep, 80 G; microwave modulation, 3000 mG, and microwave attenuation, 7 dB. […]

C57Bl/6 male mice [4] = assay: Ex vivo carotid artery vasodilatory responses after NMN supplementation in drinking water
collagen type I = assay: Immunohistochemistry of aortic collagen type I; format: in vivo; details: old mice, NMN 8 weeks
Excerpt: as §1, §2

[5] = set-up: species or system mice; details: mouse, in vivo
Excerpt: as §1
Data are presented as mean±SEM in text, figures and tables. All analyses were performed with SPSS. A one-way ANOVA (Analysis of Variance) was used to analyze morphological characteristics, maximum EDD, NO-mediated EDD, EPR spectroscopy, aPWV, elastic modulus, Western blots, and immunohistochemistry. Within-group differences in the maximal EDD dose response to acetylcholine in the absence vs. presence of TEMPOL was determined using two-factor (group×treatment) repeated-measures ANOVA. […]

SIRT1 [6] = biological target: T1, SIRT1; details: in part by reducing oxidative stress (Gano et al. 2014); cited from earlier work
carotid arteries = assay: Ex vivo incubation of isolated carotid arteries with TEMPOL, EDD to acetylcholine; set-up: species or system mice; details: other groups (YC, YNMN, ONMN); TEMPOL 0.1 mM, 1 hour incubation
Procedure: EDD and endothelium-independent dilation were determined ex vivo in isolated carotid arteries as previously described (Rippe C. et al. 2010, Aging Cell. 9, 304-312; Sindler A. L. et al. 2011, Aging Cell. 10, 429-437). Mice were anesthetized using isoflurane and euthanized by exsanguination via cardiac puncture. The carotid arteries were carefully excised, cannulated onto glass micropipette tips, and secured with nylon (11-0) sutures in individual myograph chambers (DMT Inc., Ann Arbor, Mich., USA) containing buffered physiological saline solutions. The arteries were pressurized to 50 mmHg at 37° C. and were allowed to equilibrate for 45 minutes before experimentation. After submaximal preconstriction with phenylephrine (2 μM), increases in luminal diameter in response to acetylcholine (ACh: 1×10^−9-1×10^−4 M; Sigma-Aldrich Corp.) with and without co-administration of the NO synthase inhibitor, L-NAME, 0.1 mM, 30 minute incubation; (Sigma-Aldrich Corp.) or the superoxide dismutase mimetic 4-Hydroxy-2,2,6,6-tetramethylpiperidine-1-oxyl (TEMPOL, 0.1 mM, 1 hour incubation; Sigma-Aldrich Corp.) were determined. Endothelium-independent dilation was determined by vasodilation in response to the NO donor sodium nitroprusside (SNP: […]-1×10^−4 M; Sigma-Aldrich Corp.).
All dose-response data are presented as percent dilation, i.e. FIGS. 1A, 1C and 2A. […]

SMILES: NC(=O)c1ccc[n+]([C@@H]2O[C@H](COP(=O)([O-])O)[C@@H](O)[C@H]2O)c1 [NMN, nicotinamide mononucleotide]
- arterial elastin expression (elastin): partially increased; also recorded: increased elastin to levels not significantly different from young mice
- vascular SIRT1 activity (ratio of acetylated to total p65 subunit of NFκB) (SIRT1 [1]): restored
- aortic pulse wave velocity (aPWV) (C57Bl/6 male mice [2]): no significant effect
- aortic SIRT1 protein expression (SIRT1 [3]; old mice): tended to increase
- aortic SIRT1 protein expression (SIRT1 [3]; young mice): increased
- aortic nitrotyrosine abundance (nitrotyrosine; old mice): decreased; also recorded: markedly reduced
- aortic nitrotyrosine abundance (nitrotyrosine; young mice): no significant effect
- aortic superoxide production (superoxide): no significant effect
- Endothelium-independent dilation to sodium nitroprusside (C57Bl/6 male mice [4]; young and old mice, NMN-treated vs controls): not significantly different; also recorded: did not influence
- EDD and NO-mediated dilation (C57Bl/6 male mice [4]; young mice, NMN 240 mg/kg/day in drinking water, 8 weeks): had no effect
- arterial collagen type I expression (collagen type I): reversed; also recorded: reduced arterial collagen type I to levels of young mice
- body mass across the four groups [5]: no significant differences

SMILES: O=C(Nc1ccccc1-c1cn2c(CN3CCNCC3)csc2n1)c1cnc2ccccc2n1 [SRT1720]
- EDD in old mice (SIRT1 [6]): improves

SMILES: CC1(C)CC(O)CC(C)(C)N1[O] [TEMPOL, 4-hydroxy-2,2,6,6-tetramethylpiperidin-1-oxyl]
- carotid artery EDD in presence of TEMPOL (carotid arteries): no significant effect; also recorded: no significant improvement
